Measured values taken from publication PMC6216040, “Repurposing of an old drug: In vitro and in vivo efficacies of buparvaquone against Echinococcus multilocularis” (International Journal for Parasitology: Drugs and Drug …, 2018).
Read-outs that look alike come from different tables or passages of the source.

Test system: E. multilocularis metacestodes
Experiment: PGI-assay: drug-induced damage on in vitro cultured metacestodes (Pathogen Box screening cascade and EC50)
Assay type: cell-based, Echinococcus multilocularis
Settings: for PGI release, % of the Tx-100 control, 5d / PGI release, % of the Tx-100 control, 12d / cytotoxicity at 10 µM: 10 µM, singlets; for cytotoxicity at 10 µM: Echinococcus multilocularis; for PGI release, % of Tx-100 control, average, 5d / PGI release, % of Tx-100 control, average, 12d: confirmatory screening at 10 µM in triplicates, values as % of Tx-100 control
[1] = 120 h, 5 days of incubation, read-out: PGI release, % of the Tx-100 control, 5d
[2] = 288 h, 12 days of incubation, read-out: PGI release, % of the Tx-100 control, 12d

## CC(C)(C)n1nc(Cc2cccc3ccccc23)c2c(N)ncnc21 [MMV676599]
5 days of incubation
  PGI release, % of the Tx-100 control, 5d: -0.93%
12 days of incubation
  PGI release, % of the Tx-100 control, 12d: -0.99%

## CO[C@@H](C(=O)N1Cc2n[nH]c(NC(=O)c3ccc(N4CCN(C)CC4)cc3)c2C1)c1ccccc1 [MMV676600, Danusertib, reference compound]
[1]
  cytotoxicity at 10 µM: -0.38%
[2]
  cytotoxicity at 10 µM: -0.2%

## CNC(=O)c1nn(C)c2c1C(C)(C)Cc1cnc(Nc3ccc(N4CCN(C)CC4)cc3)nc1-2 [MMV676602]
5 days of incubation
  PGI release, % of the Tx-100 control, 5d: -1.52%
  PGI release, % of Tx-100 control, average, 5d: 0.52%
12 days of incubation
  PGI release, % of the Tx-100 control, 12d: 120.02%
  PGI release, % of Tx-100 control, average, 12d: 12.12%

## C[C@H]1COC2(CCN(c3nc(=O)c4cc(C(F)(F)F)cc([N+](=O)[O-])c4s3)CC2)O1 [MMV676603]
5 days of incubation
  PGI release, % of the Tx-100 control, 5d: -4.72%
12 days of incubation
  PGI release, % of the Tx-100 control, 12d: 4.80%

## Cc1ncc(-c2ccnc(Nc3ccc(S(C)(=O)=O)cc3)n2)n1C(C)C [MMV676604]
5 days of incubation
  PGI release, % of the Tx-100 control, 5d: -0.0262%
12 days of incubation
  PGI release, % of the Tx-100 control, 12d: 0.36%

## C[C@]1(O)C[C@@H](c2nc(-c3ccc4ccc(-c5ccccc5)nc4c3)c3c(N)nccn32)C1 [MMV676605, Linsitinib, reference compound]
[1]
  cytotoxicity at 10 µM: -0.48%
[2]
  cytotoxicity at 10 µM: 0.47%

## O=C(c1ccc(NCCO)cc1)C1C[C@H]1c1ccc(Cl)cc1 (stereo partly shown) [MMV676877]
5 days of incubation
  PGI release, % of the Tx-100 control, 5d: 0.56%
12 days of incubation
  PGI release, % of the Tx-100 control, 12d: -0.18%

## CCn1cnc2c(Nc3cc(F)cc(F)c3)nc(C#N)nc21 [MMV676881]
5 days of incubation
  PGI release, % of the Tx-100 control, 5d: 0.06%
12 days of incubation
  PGI release, % of the Tx-100 control, 12d: -0.62%

## NC(=O)c1cc(-c2ccsc2)ccc1OCCOc1ccccc1 [MMV687138]
5 days of incubation
  PGI release, % of the Tx-100 control, 5d: -3.72%
12 days of incubation
  PGI release, % of the Tx-100 control, 12d: 0.14%

## CCCCS(=O)(=O)Nc1ccc2cnn(C)c2c1 [MMV687145]
5 days of incubation
  PGI release, % of the Tx-100 control, 5d: -0.86%
12 days of incubation
  PGI release, % of the Tx-100 control, 12d: -2.20%

## Cc1cc(C)c2cc(C(=O)NC3CCCCCCC3)[nH]c2c1 [MMV687146]
5 days of incubation
  PGI release, % of the Tx-100 control, 5d: -4.26%
12 days of incubation
  PGI release, % of the Tx-100 control, 12d: -3.34%

## COc1ccc(Cn2cnc3c(-c4ccco4)nc(Cl)nc32)cc1 [MMV687170]
5 days of incubation
  PGI release, % of the Tx-100 control, 5d: 0.26%
12 days of incubation
  PGI release, % of the Tx-100 control, 12d: -3.06%

## O=C(C1CCN(c2cc(-n3cccc3)ncn2)CC1)N1CCc2ccccc2C1 [MMV687172]
5 days of incubation
  PGI release, % of the Tx-100 control, 5d: 1.69%
12 days of incubation
  PGI release, % of the Tx-100 control, 12d: -1.50%

## CCc1ccc([C@@H]2C[C@H](C(F)(F)F)n3ncc(C(=O)NCc4ccc(OC)cc4)c3N2)cc1 [MMV687180]
5 days of incubation
  PGI release, % of the Tx-100 control, 5d: -2.14%
12 days of incubation
  PGI release, % of the Tx-100 control, 12d: -5.92%

## COc1ccc2nc(C)cc(OCC(=O)Nc3ccccc3OC)c2c1 [MMV687188]
5 days of incubation
  PGI release, % of the Tx-100 control, 5d: 0.23%
12 days of incubation
  PGI release, % of the Tx-100 control, 12d: 4.44%

## COc1ccc2nc(C)cc(OCC(=O)NCc3ccccc3)c2c1 [MMV687189]
5 days of incubation
  PGI release, % of the Tx-100 control, 5d: -4.79%
12 days of incubation
  PGI release, % of the Tx-100 control, 12d: 3.07%

## CC(C)(C(=O)Nc1ccc(F)cc1)n1cc(-c2ccccc2F)cn1 [MMV687239]
5 days of incubation
  PGI release, % of the Tx-100 control, 5d: 0.07%
  PGI release, % of Tx-100 control, average, 5d: -0.64%
12 days of incubation
  PGI release, % of the Tx-100 control, 12d: 101.93%
  PGI release, % of Tx-100 control, average, 12d: -1.06%

## NC(=O)c1cc(Br)ccc1OCCOc1ccccc1 [MMV687243]
5 days of incubation
  PGI release, % of the Tx-100 control, 5d: 1.02%
12 days of incubation
  PGI release, % of the Tx-100 control, 12d: -1.47%

## CN1CCN(S(=O)(=O)c2ccc(-c3ccc4c(Nc5ccc6n[nH]nc6c5)ccnc4c3)cc2)CC1 [MMV687246]
5 days of incubation
  PGI release, % of the Tx-100 control, 5d: -0.71%
12 days of incubation
  PGI release, % of the Tx-100 control, 12d: -0.69%

## Nc1nc2cc(-c3cncc(Oc4ccc(F)cc4)c3)ccc2[nH]1 [MMV687248]
5 days of incubation
  PGI release, % of the Tx-100 control, 5d: 2.44%
12 days of incubation
  PGI release, % of the Tx-100 control, 12d: 3.04%

## Cn1c(=O)c2c(S(C)(=O)=O)snc2n(C)c1=O [MMV687251]
5 days of incubation
  PGI release, % of the Tx-100 control, 5d: 5.41%
12 days of incubation
  PGI release, % of the Tx-100 control, 12d: 6.23%

## CCCCc1ccc(C(=O)Nc2nccc3ccccc23)nc1 [MMV687254]
5 days of incubation
  PGI release, % of the Tx-100 control, 5d: -0.76%
12 days of incubation
  PGI release, % of the Tx-100 control, 12d: -1.68%

## CC(C)=CCC/C(C)=C\CNCCNC1C2CC3CC(C2)CC1C3 (stereo not shown) [MMV687273]
5 days of incubation
  PGI release, % of the Tx-100 control, 5d: 8.55%
12 days of incubation
  PGI release, % of the Tx-100 control, 12d: 5.83%

## CCc1nc2ccc(Cl)cn2c1C(=O)NCc1ccc(N2CCC(c3ccc(OC(F)(F)F)cc3)CC2)cc1 [MMV687696, Telacebec, Q203, reference compound]
5 days of incubation
  PGI release, % of the Tx-100 control, 5d: -1.48%
12 days of incubation
  PGI release, % of the Tx-100 control, 12d: 7.51%

## O=C(NCc1cc(Cl)cc(Cl)c1)c1c(C(F)(F)F)nc2ccccn12 [MMV687699]
5 days of incubation
  PGI release, % of the Tx-100 control, 5d: 0.90%
12 days of incubation
  PGI release, % of the Tx-100 control, 12d: 18.76%

## Nc1ncnc2c1ncn2[C@@H]1O[C@H](COS(=O)(=O)NC(=O)c2ccccc2O)[C@@H](O)[C@H]1O [MMV687700, Salicyl-AMS, reference compound]
5 days of incubation
  PGI release, % of the Tx-100 control, 5d: -0.78%
12 days of incubation
  PGI release, % of the Tx-100 control, 12d: -1.38%

## COc1cccc(-c2nc3c(N4CCCC4)cccc3n2CC2CCCN2)n1 (stereo not shown) [MMV687703]
5 days of incubation
  PGI release, % of the Tx-100 control, 5d: 1.13%
12 days of incubation
  PGI release, % of the Tx-100 control, 12d: -0.35%
